The values below come from publication PMC8284453 (Antimicrobial Agents and Chemotherapy, 2021).

One data set has as its target T1, OXA-1 (Escherichia coli, UniProt P13661).
T1 construct: made in house; host or cells: E. coli BL21(DE3), pET9a
Description: IC50 determination against purified β-lactamase. Format: biochemical. The settings on record: substrate nitrocefin; mean from duplicate measurements.

The target in data set [1] is T2, P99AmpC (Enterobacter cloacae, UniProt P05364). Nature of the data set: IC50 determination against purified β-lactamase. More on the design: P99AmpC was purified directly from the Enterobacter cloacae P99 clinical isolate; made in house; host or cells: Enterobacter cloacae P99 (native producer, induced with sub-MIC imipenem). The settings on record: substrate nitrocefin; mean from duplicate measurements. In kind it is biochemical. On the procedure: (§1) An equal volume of enzyme was added (assay concentrations, 0.6 nM P99AmpC, 21 nM CTX-M-15, 3 nM KPC-2, 100 nM SHV-5), and the mixtures were preincubated for 15 min at 37°C. For AmpC, nitrocefin was then added to obtain a final concentration of 100 μM, and the absorbance at a wavelength (λ) of 486 nm (representing hydrolysis of the nitrocefin β-lactam ring) was monitored immediately using a BioTek Powerwave XS2 microplate reader. In similar fashion, using UV-transparent 96-well microtiter plates, hydrolysis of imipenem (100 μM) by KPC-2 was monitored at λ 300 nm, while cefotaxime (100 μM) hydrolysis by CTX-M-15 and SHV-5 was monitored at λ 300 nm. Assays were performed in duplicate, and the percentage inhibition relative to reaction mixtures containing no inhibitor were determined for each concentration of inhibitor.

Data set [2] has as its target T3, CTX-M-15 (Escherichia coli, UniProt Q9EXV5). Nature of the data set: IC50 determination against purified β-lactamase. In kind it is biochemical. Also noted: made in house; host or cells: E. coli BL21(DE3), plasmid pET-CTX-M-15 (pET9a). On the procedure: as §1
The target of the next data set is T4, CMY-2 (Klebsiella pneumoniae, UniProt Q48434).
T4 construct: made in house; host or cells: E. coli BL21(DE3), pET9a
Description: IC50 determination against purified β-lactamase. In kind it is biochemical.

For data set [3], the target named is T5, KPC-2 (Klebsiella pneumoniae, UniProt Q9F663). Description: IC50 determination against purified β-lactamase. Format: biochemical. Also noted: made in house; host or cells: E. coli BL21(DE3), plasmid pET-KPC-2 (pET9a). Conditions: substrate imipenem; mean from duplicate measurements. On the procedure:
as §1

The test system of data set [4] is isogenic strains of E. coli expressing Ambler class A, B, C, and D enzymes. Description: microbe, parasite or virus in culture. Format: cell-based, Escherichia coli. The settings on record: Escherichia coli, read-out: modal MIC.
Another data set has as its target T6, OXA-48 (Klebsiella pneumoniae, UniProt Q6XEC0).
T6 construct: made in house; host or cells: E. coli BL21(DE3), plasmid pET-OXA-48 (pET9a)
Description: biochemical.

Data set [5] has as its target T3, CTX-M-15. Nature of the data set: biochemical.
Data set [6] addresses T5, KPC-2. Description: biochemical.
In data set [7] the test system is serine β-lactamases (CTX-M-15, SHV-5, KPC-2, P99AmpC). Nature of the data set: Kinetic parameters, summary across enzymes. In kind it is biochemical. Conditions: range across the four enzymes.
The test system of data set [8] is four strains of Gram-positive organisms or nine strains of Gram-negative bacilli. Description: Stand-alone antibacterial activity. Format: cell-based. The settings on record: all MICs.
Data set [9] addresses T7, protein tyrosine kinase Fyn (Homo sapiens, UniProt P06241).
T7 construct: Eurofins/Panlabs (DrugMatrixScreen, contract assay)
Description: DrugMatrixScreen selectivity panel. In kind it is biochemical. Conditions: screening concentration of 100 μM. On the procedure: (§2) Binding, enzymatic, and uptake assays representing a wide range of cellular and subcellular target classes were performed. […] The in vivo significance of these in vitro activities is not known.
(§3) The selectivity of VNRX-5236 was assessed in the DrugMatrixScreen at Eurofins Discovery Services. This screen encompasses 123 mammalian receptor and enzyme classes (and a single prokaryotic target, a β-lactamase) that can be used to assess the potential off-target activities of development candidates ([34]).

The target in data set [10] is T8, protein serine/threonine phosphatase, PPP3CA (calcineurin PP2B) (Homo sapiens, UniProt Q08209).
T8 construct: Eurofins/Panlabs (DrugMatrixScreen, contract assay)
Nature of the data set: DrugMatrixScreen selectivity panel. Format: biochemical. Conditions: screening concentration of 100 μM. The procedure:
as §2, §3

The next data set has as its system 3T3. Nature of the data set: Mammalian cell cytotoxicity. Format: cell-based. The settings on record: dividing cell cultures. The procedure: (§4) Mammalian cell cytotoxicity. Cytotoxicity evaluations were conducted on actively dividing cells to maximize assay sensitivity. Procedurally, 180 μl of cells were seeded in cell-culture-treated 96-well plates (Celltreat, Pepperell, MA) at a density of 2 × 10^4 to 3.5 × 10^4 cells/ml and incubated overnight at 37°C in a humidified, 5% CO2 atmosphere. The next day, compound was diluted in PBS with 6% DMSO in a 0.5 log10 dilution scheme at 10 times the final compound concentration array. […] The cytotoxic agent chlorohexidine was assayed as a positive control at compound concentrations ranging from 0.31 to 100 μg/ml. The final DMSO concentration in all assays was 0.6%.
(§5) After an additional 72 h of incubation (when cells reached 90 to 100% confluence) Cell Titer 96 AQ solution was added at 20 μl per well, and plates were incubated an additional 2 to 4 h at 37°C and 5% CO2. The optical density of the wells was read on a Biotek Cytation 3 plate reader at 490 nm. Background signal (wells receiving Cell Titer reagent but containing no cells) was subtracted from all wells on the plate. […] Experiments were run in triplicate with data from all three trials included in the data analysis.

The test system of another data set is MRC-5. Nature of the data set: Mammalian cell cytotoxicity. Format: cell-based. Conditions: dividing cell cultures. On the procedure:
as §4, §5

The subject of another data set is HeLa. Nature of the data set: Mammalian cell cytotoxicity. In kind it is cell-based. The settings on record: dividing cell cultures. On the procedure:
as §4, §5

A further data set deals with T9, SHV-5 (Klebsiella pneumoniae, UniProt P0A3M1).
T9 construct: made in house; host or cells: E. coli BL21(DE3)/pLysS, plasmid pET-SHV-5 (pET9a)
Description: biochemical. Format: biochemical.

Data set [11] has as its target T2, P99AmpC. Description: Kinetic parameters of reversible inactivation.
Details of data set [12]: method as in earlier work. Conditions: cited from earlier work.
Data set [13] in a line: DrugMatrixScreen selectivity panel. The settings on record: 10 μM; 129 in vitro assays. The procedure:
as §2, §3

Setting [14] is: substrate cefotaxime, mean from duplicate measurements, read-out: IC50.
[15] abbreviates: half-life of active site occupancy.

SMILES strings stand for the structures. In brackets after ≈: the same amount, converted by molar mass. Where two headings read alike, the source gives them in different places. Where only a bound is given, the exact number is not on record here.

Regarding `NC(=O)[C@@H]1CC[C@@H]2CN1C(=O)N2OS(=O)(=O)O` [Avibactam, avibactam], the IC50 came out at 40 nM at OXA-1; 20 nM at P99AmpC [1]; 3 nM at CTX-M-15 [2] (setting [14]); 7 nM on CMY-2 (substrate nitrocefin, mean from duplicate measurements, read-out: IC50).

As for `O=C(O)[C@H]1/C(=C/CO)O[C@@H]2CC(=O)N21` [Clavulanic acid, clavulanic acid], the concentration for half-maximal inhibition (IC50) at KPC-2 [3] is 1800 nM; against OXA-1 it was 120 nM; against OXA-48, 14300 nM; at CTX-M-15 [2] (setting [14]), 40 nM. For the same compound, in data set [4], the MIC was determined as 32 µg/mL (≈ 161 µM).

Take `CCC(=O)N[C@H]1Cc2cccc(C(=O)O)c2OB1O` [VNRX-5236]: the inhibition constant Ki at CTX-M-15 [5] is 10 nM; on KPC-2 [6], 110 nM; in [7] it was 10 to 110 nM; on SHV-5, 40 nM. Besides, the t1/2 on CTX-M-15 [5] (setting [15]) was found to be 26 ± 0.6 min; on KPC-2 [6] (setting [15]), 46 ± 2 min; at P99AmpC [11] (setting [15]), 5 ± 0.1 min. For the same compound, the “k−2” value on CTX-M-15 [5] (off rate, jump dilution) is 4.5 ± 0.1 10^−4 s^−1; at KPC-2 [6] (off rate, jump dilution), 2.5 ± 0.1 10^−4 s^−1; on SHV-5 (off rate, jump dilution) it was 12.7 ± 0.07 10^−4 s^−1; at P99AmpC [11] (off rate, jump dilution), 24 ± 0.5 10^−4 s^−1. For the same compound, the half-maximal inhibitory concentration (IC50) on KPC-2 [3] was 80 nM; at OXA-1, 70 nM; against CTX-M-15 [2], 20 nM; at CMY-2, 10 nM. For the same compound, in data set [7], the “Dissociation rates (k-2)” value is listed as 2.5 to 24 10^−4 s^−1. In addition, in data set [8], the MIC is no less than 128 µg/mL. Also, the inhibition at 100 µM in [9] amounted to 77%; in data set [10], 56%. Also, the “noncytotoxic up to the highest concentration tested” value in the data set with 3T3, with MRC-5 and in the data set on HeLa was greater than 1 mg/mL each time.

`CCC(=O)N[C@H]1Cc2cccc(C(=O)OCOC(=O)C(CC)CC)c2OB1O` [VNRX-7145] returned an MIC in data set [8] of no less than 128 µg/mL. The “levels of circulating VNRX-7145” value in [12] (all PK time points) was “exceedingly low”. Moreover, the oral bioavailability entry in data set [12] (rats, dogs, and monkeys) was “high oral bioavailability”. Further, the off-target findings result in data set [13] was “no notable off-target findings”. For the same compound, the “noncytotoxic up to the highest concentration tested” value in the data set with 3T3 and in the data set with MRC-5 was greater than 0.128 mg/mL throughout.
